Literature values, collected in US8197851B2, “Carotenoid composition and method for preparation thereof” (priority 2004, dated 2012).

What was measured:
[1] = levels as high as 800 mg
[2] = test system: UV light-suppressed immune function (DTH); conditions: young and elderly men
[3] = test system: human epidermis (ex vivo); conditions: topical
[4] = test system: mouse epidermis (in vivo); conditions: topical
[5] = test system: cell surface molecules that initiate immune response; conditions: human trials
[6] = test system: Gap Junctional Communication (GJC); conditions: independent of Vitamin A activity or antioxidant actions
[7] = test system: natural killer cell (NK) activity; conditions: elderly men
[8] = test system: macular degeneration changes; conditions: 80 mg, versus placebo

CC(=O)Oc1c(C)c(C)c2c(c1C)CC[C@@](C)(CCC[C@H](C)CCC[C@H](C)CCCC(C)C)O2 (racemic) [dl-alpha tocopheryl acetate]
adverse effects [1]: No adverse effects

CC1=C(/C=C/C(C)=C/C=C/C(C)=C/C=C/C=C(C)/C=C/C=C(C)/C=C/C2=C(C)CCCC2(C)C)C(C)(C)CCC1 [beta-carotene]
UV light-suppressed immune function (DTH) [2]: Prevented UV light-suppressed immune function (DTH) | increase of epidermal retinyl esters [3]: 10 fold | increase of epidermal retinyl esters [4]: 3 fold | expression of cell surface molecules that initiate immune response [5]: stimulated expression of cell surface molecules that initiate immune response | increase of GJC [6]: most potent in increasing GJC | age related decline in natural killer cell (NK) activity [7]: Prevented age related decline in natural killer cell (NK) activity

[Zn] [zinc]
retarding macular degeneration changes [8]: significantly better than placebo
